Structures can show the parent of a compound that is named as a salt.
Each compound was assayed on Acinetobacter baumannii ATCC17961 (assay: Antimicrobial susceptibility testing, 90% growth inhibitory concentration (IC90) determination). Conditions: 90% growth inhibitory concentration, Acinetobacter baumannii ATCC17961, Iso-Sensitest broth, OD 600 nm over 16 h; read-out: ATCC17961 IC90.
Assay type: cell-based
Procedure: (§1) The in vitro antimicrobial activity of the compounds was determined according to the following procedure:
(§2) The assay used a 10-points Iso-Sensitest broth medium to measure quantitatively the in vitro activity of the compounds against Acinetobacter baumannii ATCC 17978 and Acinetobacter baumannii ATCC17961.
(§3) Stock compounds in DMSO were serially twofold diluted (e.g. range from 50 to 0.097 μM final concentration) in 384 wells microtiter plates and inoculated with 49 μl the bacterial suspension in Iso-Sensitest medium to have a final cell concentration of ˜5×10^(5) CFU/ml in a final volume/well of 50 ul/well. Microtiter plates were incubated at 35+2° C.
(§4) Bacterial cell growth was determined with the measurement of optical density at X=600 nm each 20 minutes over a time course of 16 h. Growth inhibition was calculated during the logarithmic growth of the bacterial cells with determination of the concentration inhibiting 50% (IC50) and 90% (IC90) of the growth.
(§5) Table 1 provides the 90% growth inhibitory concentrations (IC90) in micromoles per liter of the compounds of present invention obtained against the strain Acinetobacter baumannii ATCC17978 and Acinetobacter baumannii ATCC17961.

IC90 | SMILES
0.749 µM | CCc1cc(Nc2nccn3c(-c4ccc(OC)c(F)c4F)cnc23)ccc1C(=O)NC1CCCN(C(=O)[C@@H](N)CCCNC(=N)N)C1 (mixture of isomers) [Example 48, rac-N-(1-(D-arginyl)piperidin-3-yl)-4-((3-(2,3-difluoro-4-methoxyphenyl)imidazo[1,2-a]pyrazin-8-yl)amino)-2-ethylbenzamide bis(2,2,2-trifluoroacetate)]
0.173 µM | CCc1cc(Nc2nccn3c(-c4ccc(OC)c(F)c4F)cnc23)ccc1C(=O)NC1CC1NC(=O)[C@@H]1C[C@@H](O)CN1 (mixture of isomers) [Example 73, (2S,4R)-N-[(cis-1SR,2RS)-2-[[4-[[3-(2,3-difluoro-4-methoxy-phenyl)imidazo[1,2-a]pyrazin-8-yI]amino]-2-ethyl-benzoyl]amino]cyclopropyl]-4-hydroxy-pyrrolidine-2-carboxamide]
0.712 µM | CCc1cc(Nc2nccn3c(-c4ccc(OC)c(F)c4F)cnc23)ccc1C(=O)N[C@@H]1CCC[C@@H]1N [Example 71, N-((1R,2S)-2-aminocyclopentyl)-4-((3-(2,3-difluoro-4-methoxyphenyl)imidazo[1,2-a]pyrazin-8-yl)amino)-2-ethylbenzamide dihydrochloride]
0.324 µM | COc1ccc(-c2cnc3c(Nc4ccc(C(=O)NC5CCCNC5)c(C)c4)nccn23)c(F)c1F (stereo not drawn) [Example 51, 4-((3-(2,3-difluoro-4-methoxyphenyl)imidazo[1,2-a]pyrazin-8-yl)amino)-2-methyl-N-(piperidin-3-yl)benzamide]
0.363 µM | CCc1cc(Nc2nccn3c(-c4ccc(OC)c(F)c4F)cnc23)ccc1C(=O)NC1CCCNC1 (stereo not drawn) [Example 41, 4-((3-(2,3-difluoro-4-methoxyphenyl)imidazo[1,2-a]pyrazin-8-yl)amino)-2-ethyl-N-(piperidin-3-yl)benzamide]
0.559 µM | CCc1cc(Nc2nccn3c(-c4ccc(OC)c(F)c4F)cnc23)ccc1C(=O)N[C@H]1CC[C@H](NC(=O)[C@@H](N)CCCNC(=N)N)CC1 [Example 45, N-((1S,4r)-4-((S)-2-amino-5-guanidinopentanamido)cyclohexyl)-4-((3-(2,3-difluoro-4-methoxyphenyl)imidazo[1,2-a]pyrazin-8-yl)amino)-2-ethylbenzamide bis(2,2,2-trifluoroacetate)]
0.247 µM | COc1ccc(-c2cnc3c(Nc4ccc(C(=O)N[C@H]5C[C@H](N)C5)c(C)c4)nccn23)c(F)c1F [Example 57, rac-N-((1r,3r)-3-aminocyclobutyl)-4-((3-(2,3-difluoro-4-methoxyphenyl)imidazo[1,2-a]pyrazin-8-yl)amino)-2-methylbenzamide]
0.081 µM | COc1ccc(-c2cnc3c(Nc4ccc(C(=O)N[C@H]5CCN(C(=O)[C@@H]6C[C@@H](O)CN6)C5)c(C)c4)nccn23)c(F)c1F [Example 64, 4-((3-(2,3-difluoro-4-methoxyphenyl)imidazo[1,2-a]pyrazin-8-yl)amino)-N-((S)-1-((2S,4R)-4-hydroxypyrrolidine-2-carbonyI)pyrrolidin-3-yl)-2-methylbenzamide]

Same assay, conditions: Acinetobacter baumannii, ATCC17961, 16 h, read-out: ATCC17961 IC90

SMILES | IC90
CCc1cc(Nc2nccn3c(-c4ccc(OC)c(F)c4F)cnc23)ccc1C(=O)N[C@H]1[C@@H]2CNC[C@@H]21 [Example 72, rac-N-((1R,5 S,6s)-3-azabicyclo[3.1,0]hexan-6-yI)-4-((3-(2,3-difluoro-4-methoxyphenyl)imidazo[1,2-a]pyrazin-8-yl)amino)-2-ethylbenzamide hydrochloride] | 0.295 µM

Each compound was assayed on Acinetobacter baumannii ATCC 17978 in the same assay as above. Conditions: Acinetobacter baumannii ATCC17978, Iso-Sensitest broth, OD 600 nm over 16 h.
Assay type: cell-based
Procedure: as §1, §2, §3, §4, §5

IC90 | SMILES
2.7 µM | COc1ccc(-c2cnc3c(Nc4ccc(C(=O)N[C@H]5CCNC[C@H]5F)c(C)c4)nccn23)cc1F [Example 26, 4-[[3-(3-fluoro-4-methoxyphenyl)imidazo[1,2-a]pyrazin-8-yl]amino]-N-[(3R,4S)-3-fluoropiperidin-4-yl]-2-methylbenzamide;2,2,2-trifluoroacetic acid]
5.9 µM | COc1ccc(-c2cnc3c(Nc4ccc(C(=O)N(C)C5CCN(C)CC5)cc4)nccn23)cc1 [Example 16, 4-[[3-(4-methoxyphenyl)imidazo[1,2-a]pyrazin-8-yl]amino]-N-methyl-N-(1-methylpiperidin-4-yl)benzamide]
0.82 µM | COc1ccc(-c2cnc3c(Nc4ccc(C(=O)N(C)C5CCNCC5)c(Cl)c4)nccn23)cc1F [Example 20, 2-chloro-4-[[3-(3-fluoro-4-methoxyphenyl)imidazo[1,2-a]pyrazin-8-yl]amino]-N-methyl-N-piperidin-4-ylbenzamide;hydrochloride]
0.37 µM | CCc1cc(Nc2nccn3c(-c4ccc(OC)c(F)c4F)cnc23)ccc1C(=O)N[C@H]1CCNC1 [Example 28, 4-[[3-(2,3-difluoro-4-methoxyphenyl)imidazo[1,2-a]pyrazin-8-yl]amino]-2-ethyl-N-[(3S)-pyrrolidin-3-yl]benzamide;hydrochloride]
0.71 µM | CCc1cc(Nc2nccn3c(-c4ccc(OC(F)F)c(F)c4F)cnc23)ccc1C(=O)NC1(CN)CC1 [Example 29, N-[1-(aminomethyl)cyclopropyl]-4-[[3-[4-(difluoromethoxy)-2,3-difluorophenyl]imidazo[1,2-a]pyrazin-8-yl]amino]-2-ethylbenzamide;hydrochloride]
0.93 µM | CCc1cc(Nc2nccn3c(-c4ccc(OC)c(F)c4F)cnc23)ccc1C(=O)N[C@H]1CCNC1=O [Example 30, 4-[[3-(2,3-difluoro-4-methoxyphenyl)imidazo[1,2-a]pyrazin-8-yl]amino]-2-ethyl-N-[(3 S)-2-oxopyrrolidin-3-yl]benzamide]
0.482 µM | CCc1cc(Nc2nccn3c(-c4ccc(OC)c(F)c4F)cnc23)ccc1C(=O)NC1(CN)COC1 [Example 40, N-(3-(aminomethyl)oxetan-3-yl)-4-((3-(2,3-difluoro-4-methoxyphenyl)imidazo[1,2-a]pyrazin-8-yl)amino)-2-ethylbenzamide hydrochloride]
1.5 µM | COc1ccc(-c2cnc3c(Nc4ccc(C(=O)Nc5ccc(C(=O)O)cc5)c(C)c4)nccn23)cc1F [Example 25, 4-[[4-[[3-(3-fluoro-4-methoxyphenyl)imidazo[1,2-a]pyrazin-8-yl]amino]-2-methylbenzoyl]amino] benzoic acid]
2.2 µM | COc1ccc(-c2cnc3c(Nc4ccc(C(=O)NC5CCN(C)CC5)c(C)c4)nccn23)cc1 [Example 1, 4-((3-(4-methoxyphenyl)imidazo[1,2-a]pyrazin-8-yl)amino)-2-methyl-N-(1-methylpiperidin-4-yl)benzamide]
5.3 µM | COc1ccc(-c2cnc3c(Nc4ccc(C(=O)N(C)C5CCN(C)CC5)c(C)c4)nccn23)cc1 [Example 15, 4-[[3-(4-methoxyphenyl)imidazo[1,2-a]pyrazin-8-yl]amino]-N,2-dimethyl-N-(1-methylpiperidin-4-yl)benzamide]
1.1 µM | COc1ccc(-c2cnc3c(Nc4ccc(C(=O)N(C)C5CCNCC5)c(C)c4)nccn23)cc1F [Example 21, 4-[[3-(3-fluoro-4-methoxyphenyl)imidazo[1,2-a]pyrazin-8-yl]amino]-N, 2-dimethyl-N-piperidin-4-ylbenzamide;hydrochloride]
2.6 µM | COc1ccc(-c2cnc3c(Nc4ccc(C(=O)N(C)[C@@H]5CNC[C@H]5O)c(C)c4)nccn23)cc1F [Example 17, 4-[[3-(3-fluoro-4-methoxyphenyl)imidazo[1,2-a]pyrazin-8-yl]amino]-N-[(3R,4R)-4-hydroxypyrrolidin-3-yl]-N,2-dimethylbenzamide;hydrochloride]
0.54 µM | COc1ccc(-c2cnc3c(Nc4ccc(C(=O)NC5COC(CN)OC5)c(C)c4)nccn23)cc1 (stereo not drawn) [Example 7, N-(2-(aminomethyl)-1,3-dioxan-5-yl)-4-((3-(4-methoxyphenyl)imidazo [1,2-a]pyrazin-8-yl)amino)-2-methylbenzamide]
1.3 µM | Cc1cc(Nc2nccn3c(-c4ccc(OC(F)F)c(F)c4)cnc23)ccc1C(=O)N(C)C1CCNCC1 [Example 22, 4-[[3-[4-(difluoromethoxy)-3-fluorophenyl]imidazo[1,2-a]pyrazin-8-yI]amino]-N,2-dimethyl-N-piperidin-4-ylbenzamide;hydrochloride]
0.26 µM | CCc1cc(Nc2nccn3c(-c4ccc(OC)c(F)c4F)cnc23)ccc1C(=O)N[C@@H]1CCNC1 [Example 3, (R)-4-((3-(2,3-difluoro-4-methoxyphenyl)imidazo[1,2-a]pyrazin-8-yl)amino)-2-ethyl-N-(pyrrolidin-3-yl)benzamide hydrochloride]
8 µM | Cc1cc(Nc2nccn3c(-c4ccc(OC(F)F)cc4)cnc23)ccc1C(=O)N[C@H]1[C@@H](O)[C@H](O)[C@@H](CO)O[C@@H]1O [Example 23, 4-[[3-[4-(difluoromethoxy)phenyl]imidazo[1,2-a]pyrazin-8-yl]amino]-2-methyl-N-[(2S,3S,4R,5S,6R)-2,4,5-trihydroxy-6-(hydroxymethyl)oxan-3-yl]benzamide]
0.18 µM | CCc1cc(Nc2nccn3c(-c4ccc(OC)c(F)c4F)cnc23)ccc1C(=O)NC1(CO)COC1 [Example 27, 4-[[3-(2,3-difluoro-4-methoxyphenyl)imidazo[1,2-a]pyrazin-8-yl]amino]-2-ethyl-N-[3-(hydroxymethyl)oxetan-3-yl]benzamide]

SMILES | IC90
Cc1cc(Nc2nccn3c(-c4ccc(OC(F)F)cc4)cnc23)ccc1C(=O)NC1CN2CCC1CC2 (stereo not drawn) [Example 2, 4-((3-(4-(difluoromethoxy)phenyl)imidazo[1,2-a]pyrazin-8-yl)amino)-2-methyl-N-(quinuclidin-3-yl)benzamide] | 3.2 µM

Reference: patent US20230013602A1, “NOVEL IMIDAZOPYRAZINE DERIVATIVES” (Hoffmann-La Roche Inc., priority 2018, published 2023)
